The values below come from patent publication US7498353B2, “Heterocyclic anti-viral compounds comprising metabolizable moieties and their uses” (priority 2005, dated 2009).

Bounds are passed on as bounds.

The subject of one test is HCV NS5A protein in 9-13 replicon cells. Briefly: Quantitative Western blot replicon assay (HEPC_REPLICON-ICWESTERN). It is filed as cell-based, Hepatitis C virus (HCV). Conditions: Hepatitis C virus, read-out: HEPC_REPLICON-ICWESTERN Result Value (IC50). Here is the method:
Alternatively, the inhibitory activity of the metabolically active agents of the prodrugs can be confirmed using a quantitative Western immunoblot assay utilizing antibodies specific for HCV non-structural proteins, such as NS3, NS4A NS5A and NS5B. In one embodiment of this assay, replicon cells are treated with varying concentrations of test prodrug to determine the concentration of the metabolically active agent of the test prodrug that yields a 50% reduction in the amount of a non-structural protein produced as compared to a control sample (IC50). A single non-structural protein may be quantified or multiple non-structural proteins may be quantified. Antibodies suitable for carrying out such immunoblot assays are available commercially (e.g., from BIODESIGN International, Saco, Me.).
Certain prodrugs of the invention, which may inhibit HCV translation or replication prior to metablism and/or are metabolized into active agents, were also tested for their ability to inhibit HCV replication using a quantitative Western blot analysis with antibodies specific for the HCV NS5A or other non-structural proteins. Actively dividing 9-13 replicon cells were seeded into 6-well plates at a density of 1×10^5 cells/well in a volume of 2 ml/well and incubated at 37° C. and 5% CO2 for 24 hours. Various concentrations of test prodrugs (in a volume of 10 ul) were added to the wells and the cells incubated for another 48 hours. Protein samples were prepared from the cultured cells, resolved on a SDS-PAGE gel and transferred to a nitrocellulose membrane. The membrane was blocked with 5% non-fat milk in PBS for 1 hour at room temperature. Primary antibody (anti NS5A antibody; BIODESIGN International, Saco, Me.) incubation was performed for 1 hour at room temperature, after which the membrane was washed 3 times (for 15 min per time) with PBST (PBS plus 0.1% Tween 20). Horseradish peroxidase conjugated secondary antibody incubation was performed for 1 hour at room temperature and the membrane was washed 3 times (for 15 min per time) with PBST. The membrane was then soaked in substrate solution (Pierce) and exposed to a film or quantified using an imager. In this assay, the amount of test prodrug that is believed to be transformed into an active agent under the given conditions that yielded a 50% reduction in the amount of NS5A protein translated as compared to a control sample (IC50) was determined.
(Immunoblotting shows a protein as a band on a membrane.)
As usually defined, the IC50 is the concentration that inhibits the measured activity by half. For the compound `CCOP(=O)(CCC(=O)CCN(C(=O)C(Cl)Cl)c1ccnc(-c2cc(-c3c(Cl)cccc3Cl)no2)c1)OCC` [Cpd. No. 11, Diethyl 5-(2,2-Dichloro-N-(2-(3-(2,6-dichlorophenyl)isoxazol-5-yl)pyridin-4-yl)acetamido)-3-oxopentylphosphonate], the IC50 was < 1 µM.

The same test, now with this note: Hepatitis C virus; 9-13 replicon cells, 50% reduction in NS5A protein; read-out: HEPC_REPLICON-ICWESTERN Result Value (IC50).
On to `NC(CCC(=O)O)C(=O)CCN(C(=O)C(Cl)Cl)c1ccnc(-c2cc(-c3c(Cl)cccc3Cl)no2)c1` (centres unmarked) [Cpd. No. 4, 4-Amino-7-(2,2-dichloro-N-(2-(3-(2,6-dichlorophenyl)isoxazol-5-yl)pyridin-4-yl)acetamido)-5-oxoheptanoic Acid], for which the IC50 was < 1 µM.

Regarding `CCOC(=O)CN(C(=O)C(Cl)Cl)c1ccnc(-c2cc(-c3c(Cl)cccc3Cl)no2)c1` [Cpd. No. 8, Ethyl 2-(2,2-Dichloro-N-(2-(3-(2,6-dichlorophenyl)isoxazol-5-yl)pyridin-4-yl)acetamido)acetate], the half-inhibitory concentration (IC50) was in the range of 1 to 20 µM.

With `CCC(C)OCN(C(=O)C(Cl)Cl)c1ccnc(-c2cc(-c3c(Cl)cccc3Cl)no2)c1` (centres unmarked) [Cpd. No. 10, N-(sec-Butoxymethyl)-2,2-dichloro-N-(2-(3-(2,6-dichlorophenyl)isoxazol-5-yl)pyridin-4-yl)acetamide], the IC50 fell in the range of 1 to 20 µM.

`COC(=O)CCN(C(=O)C(Cl)Cl)c1cccc(-c2cc(-c3c(Cl)cccc3Cl)no2)c1` [Cpd. No. 12, Methyl 3-(2,2-Dichloro-N-(3-(3-(2,6-dichlorophenyl)isoxazol-5-yl)phenyl)acetamido)propanoate]: the 50% inhibitory concentration (IC50) was > 20 µM.

`N#CCCN(C(=O)C(Cl)Cl)c1cccc(-c2cc(-c3c(Cl)cccc3Cl)no2)c1` [Cpd. No. 13, 2,2-Dichloro-N-(2-cyanoethyl)-N-(3-(3-(2,6-dichlorophenyl)isoxazol-5-yl)phenyl)acetamide]: the IC50 is > 20 µM.

In the case of `CC(C)(C)OC(=O)NCCN(C(=O)C(Cl)Cl)c1cccc(-c2cc(-c3c(Cl)cccc3Cl)no2)c1` [Cpd. No. 14, tert-Butyl 2-(2,2-Dichloro-N-(3-(3-(2,6-dichlorophenyl)isoxazol-5-yl)phenyl)acetamido)ethylcarbamate], the 50% inhibitory concentration (IC50) is > 20 µM.

As to `CC(C)(C)OC(=O)N[C@H](C(=O)NCCN(C(=O)C(Cl)Cl)c1cccc(-c2cc(-c3c(Cl)cccc3Cl)no2)c1)c1ccccc1` [Cpd. No. 17, (S)-tert-Butyl 2-(2-(2,2-Dichloro-N-(3-(3-(2,6-dichlorophenyl)isoxazol-5-yl)phenyl)acetamido)ethylamino)-2-oxo-1-phenylethylcarbamate], the IC50 was > 20 µM.

Turning to `N[C@@H](C(=O)NCCN(C(=O)C(Cl)Cl)c1cccc(-c2cc(-c3c(Cl)cccc3Cl)no2)c1)c1ccccc1` [Cpd. No. 20, (R)-N-(2-(2-Amino-2-phenylacetamido)ethyl)-2,2-dichloro-N-(3-(3-(2,6-dichlorophenyl)isoxazol-5-yl)phenyl)acetamide], the IC50 lay within 1 to 20 µM.

For the compound `CC(C)[C@@H](CN(C(=O)C(Cl)Cl)c1cccc(-c2cc(-c3c(Cl)cccc3Cl)no2)c1)NC(=O)OC(C)(C)C` [Cpd. No. 21, (S)-tert-Butyl 1-(2,2-Dichloro-N-(3-(3-(2,6-dichlorophenyl)isoxazol-5-yl)phenyl)acetamido)-3-methylbutan-2-ylcarbamate], the half-maximal inhibitory concentration (IC50) lay within 1 to 20 µM.

On to `CC(C)[C@@H](CN(C(=O)C(Cl)Cl)c1cccc(-c2cc(-c3c(Cl)cccc3Cl)no2)c1)NC(=O)[C@@H](NC(=O)OC(C)(C)C)c1ccccc1` [Cpd. No. 22, tert-Butyl (S)-2-((S)-1-(2,2-Dichloro-N-(3-(3-(2,6-dichlorophenyl)isoxazol-5-yl)phenyl)acetamido)-3-methylbutan-2-ylamino)-2-oxo-1-phenylethylcarbamate], for which the IC50 lay in the range of 1 to 20 µM.

Turning to `CC(C)[C@@H](CN(C(=O)C(Cl)Cl)c1cccc(-c2cc(-c3c(Cl)cccc3Cl)no2)c1)NC(=O)[C@H](NC(=O)OC(C)(C)C)c1ccccc1` [Cpd. No. 23, tert-Butyl (R)-2-((S)-1-(2,2-Dichloro-N-(3-(3-(2,6-dichlorophenyl)isoxazol-5-yl)phenyl)acetamido)-3-methylbutan-2-ylamino)-2-oxo-1-phenylethylcarbamate], the concentration for half-maximal inhibition (IC50) fell in the range of 1 to 20 µM.

Consider `CC(C)[C@@H](CN(C(=O)C(Cl)Cl)c1cccc(-c2cc(-c3c(Cl)cccc3Cl)no2)c1)NC(=O)C1CC(O)CN1C(=O)OC(C)(C)C` (stereo partly drawn) [Cpd. No. 24, tert-Butyl 2-((S)-1-(2,2-Dichloro-N-(3-(3-(2,6-dichlorophenyl)isoxazol-5-yl)phenyl)acetamido)-3-methylbutan-2-ylcarbamoyl)-4-hydroxypyrrolidine-1-carboxylate], for which the half-inhibitory concentration (IC50) was 1 to 20 µM.

With `CC(C)[C@@H](CN(C(=O)C(Cl)Cl)c1cccc(-c2cc(-c3c(Cl)cccc3Cl)no2)c1)NC(=O)CN(C)C(=O)OC(C)(C)C` [Cpd. No. 25, (S)-tert-Butyl 2-(1-(2,2-Dichloro-N-(3-(3-(2,6-dichlorophenyl)isoxazol-5-yl)phenyl)acetamido)-3-methylbutan-2-ylamino)-2-oxoethyl(methyl)carbamate], the concentration for half-maximal inhibition (IC50) was 1 to 20 µM.

For `CC(C)[C@@H](CN(C(=O)C(Cl)Cl)c1cccc(-c2cc(-c3c(Cl)cccc3Cl)no2)c1)NC(=O)[C@H](CCC(=O)OC(C)(C)C)NC(=O)OC(C)(C)C` [Cpd. No. 26, (S)-tert-Butyl 4-(tert-Butoxycarbonylamino)-5-((S)-1-(2,2-dichloro-N-(3-(3-(2,6-dichlorophenyl)isoxazol-5-yl)phenyl)acetamido)-3-methylbutan-2-ylamino)-5-oxopentanoate], the concentration for half-maximal inhibition (IC50) lay within 1 to 20 µM.

On to `CC(C)(C)OC(=O)CC[C@H](NC(=O)OC(C)(C)C)C(=O)NCCN(C(=O)C(Cl)Cl)c1cccc(-c2cc(-c3c(Cl)cccc3Cl)no2)c1` [Cpd. No. 32, (S)-tert-Butyl 4-(tert-Butoxycarbonylamino)-5-(2-(2,2-dichloro-N-(3-(3-(2,6-dichlorophenyl)isoxazol-5-yl)phenyl)acetamido)ethylamino)-5-oxopentanoate], for which the IC50 was > 20 µM.

`CC(C)(C)OC(=O)N1CC(O)C[C@H]1C(=O)NCCN(C(=O)C(Cl)Cl)c1cccc(-c2cc(-c3c(Cl)cccc3Cl)no2)c1` (stereo partly drawn) [Cpd. No. 33, (2S)-tert-Butyl 2-(2-(2,2-Dichloro-N-(3-(3-(2,6-dichlorophenyl)isoxazol-5-yl)phenyl)acetamido)ethylcarbamoyl)-4-hydroxypyrrolidine-1-carboxylate]: the IC50 is > 20 µM.

With `O=C(NCCN(C(=O)C(Cl)Cl)c1cccc(-c2cc(-c3c(Cl)cccc3Cl)no2)c1)[C@@H]1CC(O)CN1` (stereo partly drawn) [Cpd. No. 34, (2S)-N-(2-(2,2-Dichloro-N-(3-(3-(2,6-dichlorophenyl)isoxazol-5-yl)phenyl)acetamido)ethyl)-4-hydroxypyrrolidine-2-carboxamide], the concentration for half-maximal inhibition (IC50) was > 20 µM.

Regarding `N[C@@H](CCC(=O)O)C(=O)NCCN(C(=O)C(Cl)Cl)c1cccc(-c2cc(-c3c(Cl)cccc3Cl)no2)c1` [Cpd. No. 35, (S)-4-Amino-5-(2-(2,2-dichloro-N-(3-(3-(2,6-dichlorophenyl)isoxazol-5-yl)phenyl)acetamido)ethylamino)-5-oxopentanoic Acid], the 50% inhibitory concentration (IC50) was > 20 µM.

`CNCC(=O)NCCN(C(=O)C(Cl)Cl)c1cccc(-c2cc(-c3c(Cl)cccc3Cl)no2)c1` [Cpd. No. 36, 2,2-Dichloro-N-(3-(3-(2,6-dichlorophenyl)isoxazol-5-yl)phenyl)-N-(2-(2-(methylamino)acetamido)ethyl)acetamide]: the IC50 lay in the range of 1 to 20 µM.

Turning to `CC(C)[C@H](N)C(=O)NCCN(C(=O)C(Cl)Cl)c1cccc(-c2cc(-c3c(Cl)cccc3Cl)no2)c1` [Cpd. No. 37, (S)-2-Amino-N-(2-(2,2-dichloro-N-(3-(3-(2,6-dichlorophenyl)isoxazol-5-yl)phenyl)acetamido)ethyl)-3-methylbutanamide], the 50% inhibitory concentration (IC50) was 1 to 20 µM.

Turning to `CC[C@H](C)[C@H](N)C(=O)NCCN(C(=O)C(Cl)Cl)c1cccc(-c2cc(-c3c(Cl)cccc3Cl)no2)c1` [Cpd. No. 38, (2S,3S)-2-Amino-N-(2-(2,2-dichloro-N-(3-(3-(2,6-dichlorophenyl)isoxazol-5-yl)phenyl)acetamido)ethyl)-3-methylpentanamide], the 50% inhibitory concentration (IC50) lay within 1 to 20 µM.

On to `CC(C)[C@H](N)CN(C(=O)C(Cl)Cl)c1cccc(-c2cc(-c3c(Cl)cccc3Cl)no2)c1` [Cpd. No. 39, (S)-N-(2-Amino-3-methylbutyl)-2,2-dichloro-N-(3-(3-(2,6-dichlorophenyl)isoxazol-5-yl)phenyl)acetamide], for which the IC50 was 1 to 20 µM.
